Measurements published in patent US20220401483A1, “COMBINATION OF A T CELL THERAPY AND (S)-3-[4-(4-MORPHOLIN-4-YLMETHYL-BENZYLOXY)-L-OXO-L,3-DIHYDRO-ISOINDOL-2-YL]-PIPERIDINE-2,6-DIONE” (Juno Therapeutics, Inc., priority 2019, published 2022).

What was measured:
Format in all cases: cell-based, human
anti-CD19 CAR T cells [1] = test: Intracellular cytokine staining of acutely stimulated anti-CD19 CAR T cells; conditions: 3 days, 30 μg/mL agonistic anti-CAR antibody
Experimental: Effector and proliferative activity of anti-CD19 CAR T cells were assessed following incubation in the presence of absence of Compound A. Anti-CD19 CAR+ T cell compositions were generated as described in Example 1.
The anti-CD19 CAR T cells were stimulated with agonistic antibody against the CAR (30 μg/mL; WO2018/023100) while being treated with vehicle control (ctrl) or Compound A. Intracellular cytokines were measured using intracellular cytokine staining (ICS) after 3 days of treatment. FIG. 7A show a heatmap of cytokine expression as depicted based on log 2-fold change in mean fluorescence intensity (MFI) of cytokines relative to vehicle control in culture.

RL CD19+ tumor cells = test: Acute cytolytic activity, anti-CD19 CAR T cells co-cultured with RL CD19+ tumor cells
Experimental: Anti-CD19 CAR T cells were co-cultured with RL CD19+ tumor cells at an effector to target (E:T) ratio of 1:1, in the presence of (S)-3-[4-(4-morpholin-4-ylmethyl-benzyloxy)-1-oxo-1,3-dihydro-isoindol-2-yl]-piperidine-2,6-dione (Compound A) (0.001 μM, 0.01 μM or 0.1 μM). Acute cytolytic activity was measured by tumor cell number over time. […] Co-culture of CAR T cells with RL resistant tumor cells in the presence of Compound A improved cytolytic CAR T cell function, […]

[2] = tested on: Granta-519 tumor spheroids; test: Spheroid tumor growth assay, rescue treatment of chronically stimulated CAR T cells
Experimental: Anti-CD19 CAR-expressing T cells from three donors, produced as described in Example 1, were stimulated under conditions to induce chronic stimulation (to produce hypofunctional, exhausted T cells) and then were subsequently treated (rescue) with (S)-3-[4-(4-morpholin-4-ylmethyl-benzyloxy)-1-oxo-1,3-dihydro-isoindol-2-yl]-piperidine-2,6-dione (Compound A), or a vehicle control. Long-term, chronic stimulation was carried out by stimulation of CAR T cells with 30 μg/mL plate-bound anti-idiotypic (anti-ID) antibody for 6 days, substantially as described in Example 3 but in the absence of Compound A. After the chronic stimulation, the CAR-T cells were rechallenged with CD19-expressing target cells in the presence of Compound A, and cytolytic activity or cytokine production was assessed.
CAR T cells that had been stimulated for 6 days with anti-ID were co-cultured by incubation with Granta-519 tumor spheroids, in the presence or absence of Compound A (0.001 μM or 0.01 μM). Cells were assessed at various time points for cytolytic function and cytokine function. For comparison, cytolytic activity was also assessed for cells that had been similarly chronically stimulated with anti-ID, followed by co-culture in the presence of 1 μM or 0.1 μM Compound B. Averaged measurement of tumor spheroid size at Day 9 following co-culture with CAR-T cells was assessed. […] The improvement in cytolytic function was greater following rescue treatment with Compound A than Compound B. Cytokines (IFNγ, IL-2 and TNFalpha) were measured from supernatant of the chronically stimulated CAR T cells above that had been co-cultured for 5 days with CD19 tumor spheroids. The log 2 fold change compared to control cells (chronically stimulated cells that had not been treated with immunomodulatory compound) is shown in FIG. 4C.

Ikaros = Ikaros expression in chronically stimulated CAR T cells with concurrent treatment; conditions: 100 nM
Experimental: Anti-CD19 CAR-expressing T cells were produced substantially as described in Example 1. To subject cells to chronic stimulation conditions, the CAR+ T cells were stimulated with 30 μg/mL plate-bound anti-idiotypic (anti-ID) antibody (see e.g. WO2018/023100) for 6 days in the presence of (S)-3-[4-(4-morpholin-4-ylmethyl-benzyloxy)-1-oxo-1,3-dihydro-isoindol-2-yl]-piperidine-2,6-dione (Compound A) or a vehicle control, to induce chronic stimulation. […] Cells were assessed at various times for cytolytic function, CAR T cell number and cytokine production.
After the long-term, chronic stimulation with concurrent treatment with Compound A, CAR T cells were assessed for Ikaros expression or for CAR T function following rechallenge with CD19-expressing target cells.
Expression of Ikaros in CAR T cells that had been subjected to chronic stimulation in the presence of Compound A (1 nM, 10 nM or 100 nM) was measured by intracellular flow cytometry analysis using an antibody to Ikaros.

anti-CD19 CAR T cells [3] = test: RNA-seq gene expression of anti-CD19 CAR T cells sorted from tumor spheroids
Experimental: Gene expression analysis of anti-CD19 CAR T cells sorted from tumor spheroids 5 days after co-culture as described above was analyzed by RNA sequencing (RNA-seq) on the complementary DNA (cDNA) samples prepared from the RNA isolated from the long-term stimulated CAR-expressing T cells or on CAR-expressing T cells that had not undergone the long-term stimulation. Libraries for RNA-seq were sequenced on Illumina NextSeq system. Reads were mapped to the human reference genome GRCh38, and gene expression levels were quantified in Array Studio. Differential expression (DE, for RNA-seq) analysis was performed using DESeq2.
The dots on the top left quadrant represent genes induced by chronic stimulation and the dots on the lower right quadrant represent genes reversed by Compound A.
Pathway enrichment analysis of the differentially expressed genes were performed using clusterProfiler.
Gene expression analysis by RNA-seq was carried out substantially as described in Example 3.

anti-CD19 CAR T cells [4] = test: Proliferation and cell cycle of acutely stimulated anti-CD19 CAR T cells
Experimental: Cell cycle and proliferation of anti-CD19 CAR T cells was measured by labeling cells using the Click-iT™ EdU Cell Proliferation Kit after which the prepared cells were analyzed by flow cytometry for DNA content. Numbers of anti-CD19 CAR T cells were measured over time using an IncuCyte® Live-Cell Analysis System.
As shown, treatment with Compound A reduced the proliferation of anti-CD19 CAR T cells. To further assess the effects on reducing proliferation, cell cycle was measured by flow cytometry by analyzing DNA content. FIG. 7D depicts plots of the percentage of cells in G1 phase (mean±SEM from data pooled from 3 donors and 2 independent experiments).

## O=C1CC[C@H](N2Cc3c(OCc4ccc(CN5CCOCC5)cc4)cccc3C2=O)C(=O)N1 [Compound A, (S)-3-[4-(4-morpholin-4-ylmethyl-benzyloxy)-1-oxo-1,3-dihydro-isoindol-2-yl]-piperidine-2,6-dione]
anti-CD19 CAR T cells [1]
  effector cytokine production (ICS, MFI vs vehicle): potentiates
RL CD19+ tumor cells; 0.01 μM or 0.1 μM
  sensitivity of RL tumor cell line to monotherapy: sensitive
RL CD19+ tumor cells; co-culture, E:T 1:1, 0.001, 0.01 or 0.1 μM
  cytolytic CAR T cell function against RL tumor cells: improved
[2]; 0.001 μM or 0.01 μM, Day 9
  CAR T cell cytolytic function, Granta-519 spheroid growth: improved
[2]; 5 days co-culture with spheroids
  IFNγ in co-culture supernatant: statistically significant increase
[2]; Compound B 1 μM or 0.1 μM
  improvement in cytolytic function compared with Compound B: greater
Ikaros
  Ikaros expression in chronically stimulated cells: reduction of Ikaros expression was maintained
anti-CD19 CAR T cells [3]; concurrent treatment
  expression changes in genes of T cell function pathways after chronic stimulation: can be reversed
anti-CD19 CAR T cells [3]; rescue treatment
  expression changes in genes of T cell function pathways after chronic stimulation: can also be reversed
anti-CD19 CAR T cells [4]; 1 nM, 10 nM or 100 nM
  proliferation of anti-CD19 CAR T cells: reduced
anti-CD19 CAR T cells [4]; 3 days treatment
  percentage of cells in the G1 phase: statistically significant increase
